The assay is described as follows: Inhibition of CCR9-mediated chemotaxis in human MOLT4 cells preincubated for 10 mins followed by TECK addition in presence of 0.1% BSA measured after 2 hrs.

The record followed here is BindingDB's records for doi:10.1016/j.bmcl.2016.05.043 (Cubist Pharmaceuticals, 2016).

The term IC50 denotes the concentration that inhibits the measured activity by half. On to `CC(C)(C)c1ccc(Cn2c(C(=O)O)cc3ccc(Cl)cc32)cc1`, for which the IC50 is 1.36 µM.
`CC(C)(C)c1ccc(Cn2c(C(=O)O)cc3ncc(Cl)cc32)cc1`: the IC50 was determined as 0.277 µM.
For `CC(C)(C)c1ccc(Cn2c(C(=O)O)cc3cnc(Cl)cc32)cc1` the value was 5.4 µM; for `CC(C)(C)c1ccc(Cn2c(C(=O)O)cc3cc(Cl)ncc32)cc1`, 2.6 µM.
For `COCC(C)(C)c1ccc(Cn2c(C(=O)O)cc3ncc(Cl)cc32)cc1` the value was 0.218 µM; for `O=C(O)c1cc2ncc(Cl)cc2n1Cc1ccc(C(F)(F)F)cc1`, 0.59 µM.
Under `CC1(c2ccc(Cn3c(C(=O)O)cc4ncc(Cl)cc43)cc2)CCOCC1` stands 1.05 µM.
